SMILES | melting point [°C]
COc1ccc2c(C(=O)C3CSC(c4cccnc4)N3)c[nH]c2c1 (stereo unspecified) | 86 to 88
CC(=O)SCSc1cnnn1C | 37 to 38
NS(=O)(=O)c1ccc(OC2CCCCO2)s1 (stereo unspecified) | 90 to 92
OCc1ccc(Nc2ccccc2)nc1 | 119 to 122
CSc1cnc(OCCOc2ncnc(NS(=O)(=O)c3ccc(C(C)(C)C)cc3)c2Br)nc1 | 120 to 121
CCc1nn(C2CCCC2)c2cc(C(=O)NCCc3ccncc3)ccc12 | 123 to 126
O=C1CCC(N2Cc3cc(CNC(=O)Nc4ccccc4)ccc3C2=O)C(=O)N1 (stereo unspecified) | 243 to 245
CC(C(C#N)C(=O)O)C(C)(C)C (stereo unspecified) | 68 to 78
CN1C[C@H](CN2CCN(C(c3ccccc3)c3ccccc3)CC2)C=C2c3cccc4[nH]cc(c34)C[C@H]21 | > 200
CC1(C)C2CCC1(C)C(O)(c1ccccn1)C2 (stereo unspecified) | 60 to 61
CN(C)Cc1nc(-c2ncn3c2C2CCCN2C(=O)c2c(Cl)cccc2-3)no1 (stereo unspecified) | 261
CS(=O)(=O)c1ccc(-c2cnn(-c3ccc(F)cc3)c(=O)c2Cc2ccccc2)cc1 | 180 to 182
C=Cc1cc(C)cc(C)c1CC(=O)N(C)C1(C(=O)OC)CCN(OC)CC1 | 160 to 162
CC1(CCC(=O)CCCc2cccc([N+](=O)[O-])c2)C(=O)CCC1=O | 81 to 83
CC1=C(c2ccncc2)CC(C)C(=O)N1 (stereo unspecified) | 148 to 150
O=C1CCC(N2Cc3c(NCc4cccc(Cl)c4)cccc3C2=O)C(=O)N1 (stereo unspecified) | 253 to 255
COC(=O)c1ccc(-c2ccc(-c3ccc4c(c3)C(C)(C)CCC4(C)C)s2)cc1 | 126 to 129
N[C@@H](C/C(=C\C1CCCCC1)C(=O)O)C(=O)O | 205
CCc1cn(C2CC(O)C(CCCCc3ccccc3)O2)c(=O)[nH]c1=O (stereo unspecified) | 160 to 162
C/C(=N\OC(=O)c1ccc(CNC(=O)OC(C)(C)C)cc1)[C@H]1CC[C@H]2[C@@H]3CCC4=CC(=O)CC[C@]4(C)[C@H]3CC[C@]12C | 166 to 168
N#Cc1cn(C2CC(O)C(CO)O2)c(=O)[nH]c1=O (stereo unspecified) | 161
Cc1ccc(S(=O)(=O)Cc2c(C#N)nn(-c3ccccc3)c2O)cc1 | 214
N#CC1CN1C(=O)c1ccc(Cl)nn1 (stereo unspecified) | 109 to 115
c1ccc2c(c1)cnn2N1CCNCC1 | 153
Cc1cc(C(=O)NCCO)ncc1C(c1c(F)ccc(F)c1F)S(=O)(=O)CCC(F)(F)F (stereo unspecified) | 146 to 147
CC(C)(C)c1cc(CC2CO2)cc(C(C)(C)C)c1O (stereo unspecified) | 86 to 87
O=CNC1=NN(c2ccc(Cl)c(Cl)c2)CC1 | 151 to 153
N#Cc1ccc(NCCc2[nH]c3c(cnc4cc(Cl)ccc43)c2C=O)cc1 | 203 to 206

SMILES | melting point [°C]
Cn1ncc2c(=O)n3ccsc3nc21 | 220 to 221
CCCC1=C([N+](=O)[O-])C(c2ccccc2Br)c2c[nH]nc2N1 (stereo unspecified) | 226
OCc1ccc(-c2cc3nccnc3[nH]2)cc1 | 284 to 285
CCOc1ccc(C2=NNC(=O)CC2)cc1OCC | 142 to 143
CCn1ncc2c1ncc1c(NCCN(C)C)nc3cc(C)nn3c12 | 124 to 126
Nc1ccc(NC2CCCCCCC2)c([N+](=O)[O-])c1 | 161
COc1cc(C=CC(=O)CCCCCBr)cc(OC)c1 | 73 to 76
CC1(C)C(=O)Oc2c(S(C)(=O)=O)cc3cc(S(C)(=O)=O)c(Cn4cncn4)cc3c21 | 263 to 264
CS(=O)(=O)c1cc2c(c(C=O)c1O)CCC2 | 152 to 153
Cc1ccc(C)c(NC(=O)CN2CCN(c3ncccc3C#N)CC2)c1 | 106 to 108
CCCN1Cc2c(ncnc2C2C(=O)Nc3ccc(C#N)cc32)N1 (stereo unspecified) | > 300
CCc1c(-c2ccc(O)cc2)c2ccc3ccc(COCCN4CCCCC4)c1n32 | 68 to 75
CN1CCN(c2cccc(-c3cnn4c(N)c(-c5ccccc5Cl)cnc34)c2)CC1 | 200 to 203
Cn1c2c(c3ccccc31)OCC2=O | 113 to 116
CSC(=NC#N)NCCN1CCC(Nc2nc3cccnc3n2Cc2ccc(F)cc2)CC1 | 172
COc1ccc(CCN(C)C)c2[nH]c(=O)[nH]c12 | 197 to 199
COC1([N+](=O)[O-])C=C([N+](=O)[O-])C=CC1O (stereo unspecified) | 68 to 70
C#CC(C)Oc1cc(-c2nn3c(c2Cl)CCCC3)c(F)cc1Cl (stereo unspecified) | 116 to 120
O=c1nc(-c2ccc(Br)cc2)c2c(=O)nc(-c3ccc(Br)cc3)c1=2 | > 400
COC(=O)c1cc(O)cc(Cl)c1 | 133 to 135
OCC(CO)SCc1ccc(Cl)cc1 | 70 to 75
CC(C)(C)C(=O)OCN(c1ccc(CN2CCN(Cc3ccccc3)C(=O)C2=O)cc1)c1ncccn1 | 144 to 146
N#CCN1C(=O)COc2cc(F)c(-n3c(=O)n4n(c3=O)CCCC4)cc21 | 286 to 287
CC(=O)OC1CSC(Oc2cccnc2-c2cccnc2)C(OC(C)=O)C1OC(C)=O (stereo unspecified) | 70
O=[N+]([O-])c1nc(CC(O)C2CO2)c[nH]1 (stereo unspecified) | 90 to 92
Cc1ccc(COc2cccc(/C=C/c3ccc(CN4CCCCC4)cc3)c2)cc1 | 87 to 88
Cc1ccnc(N2CCN(CCc3c(C)n4c5c(cc(Br)cc35)CCC4)CC2)c1 | 200

Other lines, results leading:

melting point [°C] | SMILES
111 to 116 | CCOC(=O)NN=Cc1cc(-n2c(=O)cc(C(F)(F)F)n(C)c2=O)ccc1Cl
155 to 158 | CCOC(=O)c1ncn(-c2nccs2)c1S
235 | COc1ccc(OC)c(-c2nc3ncccc3[nH]2)c1
157 to 159 | CCCOc1nc2cccc(C(=O)OCC)c2n1Cc1ccc(-c2ccccc2-c2nnn[nH]2)cc1
88 | O=C(OCc1cc(COC(=O)c2ccc(O)c(F)c2)cc(COC(=O)c2ccc(O)c(F)c2)c1)c1ccc(O)c(F)c1
99 to 100 | Cc1oc(C=Cc2cccc(C(F)(F)F)c2)nc1CCl
154 to 156 | CCOC(=O)c1c(Cn2ccccc2=O)nc2cc(OC)c(OC)cc2c1-c1ccc(OC)c(OC)c1
124 to 126 | COc1cc(C(=O)O)c2c(c1OC)OC(C1CC1)C=C2 (stereo unspecified)
115 to 117 | CCOC(=O)/C=C(C)/C(F)=C/C=C(C)/C=C/c1c(C)cc(OC)c(C)c1Cl
30 to 32 | CCOC(=O)c1sc(CC)nc1C(F)(F)F
45 to 47.5 | C#CC(=O)Oc1ccc(OCc2ccccc2)cc1
124 | COc1cc(Oc2ccc(C(=O)N(C(C)C)C3CCCCC3)cc2)cc(OC)c1OC
258 to 260 | CS(=O)(=O)Nc1ccccc1Sc1c(C(=O)O)sc2cc(OCc3cccnc3)ccc12
215 to 217 | COc1ccc(C(=O)Nc2c(Cl)cncc2Cl)c2c3ccccc3n(Cc3ccccc3)c12
147 to 150 | CC(C)(C(=O)O)C(=O)Oc1ccc(C(=O)c2ccccc2)cc1
119 to 120 | COc1ccc(Cc2cc3cccc(-c4cccc(C(=O)NCCN5CCCC5)c4)c3o2)cc1OC
169 to 170 | CCc1cc(=O)c(C(=O)c2ccccc2)c(C)[nH]1
151 to 153 | CC(C)(C)c1cc(SCN2C(=O)c3ccccc3C2=O)cc(C(C)(C)C)c1O
> 300 | NNc1cc2ccccc2cc1C(=O)O
122 to 124 | CC(C)NC(=O)c1nc(-c2ccc(F)cc2)c(-c2ccc(=O)n(C(C)C)n2)s1
127 | COC(=O)c1cc(NCc2c(F)c(F)c(C(F)(F)F)c(F)c2F)ccc1O
102 to 103 | O=S(=O)(NCC(O)CN1c2ccccc2CCc2ccccc21)c1ccc(OC(F)(F)F)cc1 (stereo unspecified)
168 to 170 | COc1ccc(C(=O)Nc2ccc3ccc(Oc4ccccc4OC)nc3n2)cc1

melting point [°C] | SMILES
134 to 135 | Cc1c(-c2ccccc2)oc2c(C(=O)CBr)cccc2c1=O
122 to 123 | CCCc1nn(-c2ccc(C(F)(F)F)cn2)cc1CCCCOc1cc(CCC(=O)O)n(C)n1
58 to 61 | FC(F)(F)C(Cc1ccccc1)c1ccccc1 (stereo unspecified)
196 | NC(=O)C(Nc1ccccc1C(=O)C1CC1)c1c(Cl)cccc1Cl (stereo unspecified)
69 to 70 | OCc1nc(-c2ccccc2)ccc1Cl
227 to 229 | CCc1c(F)c(=O)oc2cc(O)cc(O)c12
66 to 67 | CCC1(C)OC1COc1ccc(C(=O)c2ccccc2)cc1 (stereo unspecified)
116 to 117 | CCCCCS(=O)(=O)NC(=O)/C(C)=C/c1ccc(OCCCOC)cc1Oc1ncc(Cl)cc1Cl
280 | Cc1c(C(=O)Nc2ccc(N3CCC(N4CCOCC4)CC3)c(C#N)c2)cnn1-c1ccc(I)cc1
178 to 180 | NC(=O)c1cc(NCc2cccc(Cl)c2)c([N+](=O)[O-])cc1[N+](=O)[O-]
140 to 142 | Cc1cccc2c1nc(COc1ccc(Cl)cc1)n2CCC(C)C(=O)Cl (stereo unspecified)
170 | Nc1nc(=O)c2ccccc2n1Cc1ccc(F)cc1
229 to 232 | COc1cc(CNc2nc(C)nc(C)c2Cl)ccc1Oc1ccc2ncc([N+](=O)[O-])n2n1
97 to 100 | COc1cc(C=CC(=O)CC(=O)C(F)(F)F)ccc1O
87 to 88 | COc1ccc2c(c1)C(CCNC(=O)C(F)(F)F)=CC2
178 to 180 | CC(C)(C)C(NC(=O)c1ccc(Cl)cc1)NC(=NC#N)NCc1cccc(Cl)c1 (stereo unspecified)
236 to 238 | CNC(=O)c1ccc(CN2CCN(c3nc(C)c(-c4cc(C)n[nH]4)s3)C2=O)cc1
116 to 118 | COc1ccc(-c2cc(Cl)c3cc(O)ccc3c2)cc1
139 to 140 | NC(=O)c1ccc(F)c(-c2cccc3cc(Cc4cccc(C(F)(F)F)c4)sc23)c1
116 to 117 | CCOC(=O)C1=Cc2cc(Cl)c(Oc3ccc(OC)cc3)cc2OC1C(F)(F)F (stereo unspecified)
195 to 198 | O=S1(=O)Cc2ccc(Cl)cc2C(c2cccc(F)c2)=NN1
135 to 138 | COc1ccc2c(c1)C(=O)[C@@H](O)[C@](C#Cc1ccccc1)(c1ccccc1)O2 (relative stereo)
200 | COc1ccc2ccc(N3C(=O)c4ccccc4C3CC(CCC(C)C)=NO)nc2n1 (stereo unspecified)
